Measured values published in publication PMC11157103, “Exploration of morpholine-thiophene hybrid thiosemicarbazones for the treatment of ureolytic bacterial infections via targeting urease enzyme: Synthesis, biochemical screening and computational analysis” (Frontiers in Chemistry, 2024).
Read-outs that look alike come from different tables or passages of the source.

Experiments:
jack bean urease = jack bean urease (Canavalia ensiformis, UniProt P07374); assay: biochemical; format: biochemical; details: for fold stronger inhibitory potential than thiourea: relative to thiourea IC50
Chain of jack bean urease (P07374 whole entry, looked up): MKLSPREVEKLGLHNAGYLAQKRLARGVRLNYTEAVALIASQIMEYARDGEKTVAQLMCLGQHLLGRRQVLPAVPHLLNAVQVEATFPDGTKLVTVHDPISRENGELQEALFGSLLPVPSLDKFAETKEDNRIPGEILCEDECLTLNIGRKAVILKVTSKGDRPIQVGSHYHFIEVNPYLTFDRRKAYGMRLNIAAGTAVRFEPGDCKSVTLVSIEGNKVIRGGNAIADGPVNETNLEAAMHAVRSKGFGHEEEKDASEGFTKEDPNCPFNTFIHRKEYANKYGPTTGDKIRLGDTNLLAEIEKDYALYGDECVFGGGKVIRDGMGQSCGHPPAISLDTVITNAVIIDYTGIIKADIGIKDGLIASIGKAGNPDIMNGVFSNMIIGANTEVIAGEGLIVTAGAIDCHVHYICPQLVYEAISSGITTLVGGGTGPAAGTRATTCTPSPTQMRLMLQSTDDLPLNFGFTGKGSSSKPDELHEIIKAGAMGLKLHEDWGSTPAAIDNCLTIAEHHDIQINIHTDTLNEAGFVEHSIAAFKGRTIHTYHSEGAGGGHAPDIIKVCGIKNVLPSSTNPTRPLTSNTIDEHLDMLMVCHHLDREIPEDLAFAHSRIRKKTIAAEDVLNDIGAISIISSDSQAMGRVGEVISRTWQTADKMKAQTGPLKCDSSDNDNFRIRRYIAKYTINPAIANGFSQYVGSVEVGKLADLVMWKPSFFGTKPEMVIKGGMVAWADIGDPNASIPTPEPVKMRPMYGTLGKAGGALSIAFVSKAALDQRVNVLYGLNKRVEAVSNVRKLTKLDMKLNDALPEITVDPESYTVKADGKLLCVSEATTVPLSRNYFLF
Protocol: The indophenol method with a little modification was used to determine the urease inhibitory activity of synthetic compounds (5a-i) ([Weatherburn, 1967]; [Yaseen et al., 2016]). Thiourea was used as a standard inhibitor. The assay mixture was comprised of 40 μL of buffer (100 mmol/L urea, 0.01 mol/L K2HPO4, 1 mmol/L EDTA and 0.01 mol/L […], pH 8.2), 10 μL of jack bean urease (5 U/mL) and 10 μL of test compound (1 mM). The reaction mixture was incubated for 30 min with 10 μL urea (1 mM) at 37 °C in 96-well plate. The phenol reagent (40 μL, 1% w/v phenol, 0.005% w/v sodium nitroprusside) and alkali reagent (40 μL, 0.5% w/v NaOH, 0.1% active chloride NaOCl) were added to each well and after 10 min of incubation at 37 °C, the absorbance was measured at 630 nm using a microplate reader (Bio-Tek ELx 800™, Instruments, Inc. United States). The experiments to determine the inhibitory activity of compounds were performed in triplicates. The percentage inhibition was calculated by using the formula given below. Inhibition %=100 – Absorbance of the test compound/Absorbance of the control×100
Compounds showing >50% inhibition against urease were further evaluated for the determination of IC50 values at various concentrations (0.1, 0.3, 1, 3, 10, 30, 100, 300, 1,000 μM) against jack bean urease. The experiments were performed in triplicate. IC50 values were calculated by using the non-linear curve fitting program PRISM 5.0 (GraphPad, San Diego, California, United States) to analyze the results.

urease = urease (Canavalia ensiformis, UniProt P07374); assay: Kinetics analysis (Michaelis-Menten, Lineweaver-Burk plot); format: biochemical, jack bean; details: urea 25-150 mM, inhibitor 0, 1.9, 3.8, 5.7 μM
Chain of urease (P07374 whole entry, looked up): as above
Protocol: These experiments helped in the assessment of K m and V max values to predict the mechanism of urease inhibition by plotting reciprocal of reaction rate 1/V (y-axis) against reciprocal of substrate concentrations 1/[S] (x-axis).
The rate of enzyme inhibition was accessed across numerous concentrations of substrate (25, 50, 100, 150 mM) and compound 5g (0, 1.9, 3.8, 5.7 μM) against urease. Afterwards, the data was plotted to obtain the Lineweaver-Burk plot by using GraphPad Prism version 10.2.1.

| Structure (SMILES) | IC50 (jack bean urease) [µM] | fold stronger inhibitory potential than thiourea (jack bean urease) [fold] | melting point [°C] | mechanism of urease inhibition (urease) | IC50 (jack bean urease; jack bean urease, indophenol method, triplicate, read-out: Urease inhibition IC50 ± SEM) [µM] |
| --- | --- | --- | --- | --- | --- |
| S=C(NCCN1CCOCC1)NN=Cc1cccs1 [Compound 5a, N-(2-morpholinoethyl)-2-(thiophen-2-ylmethylene)hydrazinecarbothioamide] | 4.94 ± 2.7 | 4.5 | – | – | – |
| CC(=NNC(=S)NCCN1CCOCC1)c1cccs1 [Compound 5b, N-(2-morpholinoethyl)-2-(1-(thiophen-2-yl)ethylidene)hydrazinecarbothioamide] | 4.96 ± 3 | – | 142 to 144 | – | – |
| CC(=NNC(=S)NCCN1CCOCC1)c1cc(C)cs1 [Compound 5c, 2-(1-(4-Methylthiophen-2-yl)ethylidene)-N-(2-morpholinoethyl)hydrazinecarbothioamide] | 4 ± 2.4 | – | 112 to 114 | – | – |
| CC(=NNC(=S)NCCN1CCOCC1)c1ccc(C)s1 [Compound 5d, 2-(1-(5-Methylthiophen-2-yl)ethylidene)-N-(2-morpholinoethyl)hydrazinecarbothioamide] | 4.6 ± 2.6 | 4.8 | 156 to 158 | – | – |
| CC(=NNC(=S)NCCN1CCOCC1)c1sccc1Cl [Compound 5e, 2-(1-(3-Chlorothiophen-2-yl)ethylidene)-N-(2-morpholinoethyl)hydrazinecarbothioamide] | 4.81 ± 1.5 | – | 116 to 118 | – | – |
| CC(=NNC(=S)NCCN1CCOCC1)c1sccc1Br [Compound 5f, 2-(1-(3-Bromothiophen-2-yl)ethylidene)-N-(2-morpholinoethyl)hydrazinecarbothioamide] | 5.77 ± 0.7 | – | 124 to 126 | – | – |
| CC(=NNC(=S)NCCN1CCOCC1)c1ccc(Cl)s1 [Compound 5g, 2-(1-(5-Chlorothiophen-2-yl)ethylidene)-N-(2-morpholinoethyl)hydrazinecarbothioamide] | 3.8 ± 1.9 | – | 148 to 150 | uncompetitive inhibition | – |
| CC(=NNC(=S)NCCN1CCOCC1)c1ccc(Br)s1 [Compound 5h, 2-(1-(5-Bromothiophen-2-yl)ethylidene)-N-(2-morpholinoethyl)hydrazinecarbothioamide] | 3.98 ± 2.2 | – | 148 to 150 | – | – |
| CC(=NNC(=S)NCCN1CCOCC1)c1ccc([N+](=O)[O-])s1 [Compound 5i, N-(2-morpholinoethyl)-2-(1-(5-nitrothiophen-2-yl)ethylidene)hydrazinecarbothioamide] | 3.9 ± 2.7 | – | 192 to 194 | – | – |
| NC(N)=S [Thiourea, reference compound] | – | – | – | – | 22.31 ± 0.03 |
